Assay results taken from ChEMBL document CHEMBL2163295, “Uvaridacols E-H, highly oxygenated antiausterity agents from Uvaria dac” (2012).

What was measured:
[1] = tested on: PANC-1; experiment: Cytotoxicity against human PANC1 cells grown in nutrient-deprived medium after 24 hrs by WST8 assay; type: functional
[2] = tested on: PANC-1; experiment: Cytotoxicity against human PANC1 cells grown in DMEM medium after 24 hrs by WST8 assay; type: functional

SMILES | PC50 [1] [µM] | PC50 [2] [µM]
COc1cc(C[C@H]2C(=O)OC[C@@H]2Cc2ccc(OC)c(OC)c2)ccc1O [ARCTIGENIN] | 1 | –
O=c1[nH]cc(F)c(=O)[nH]1 [FLUOROURACIL] | >200 | >200
Nc1ccn([C@@H]2O[C@H](CO)[C@@H](O)C2(F)F)c(=O)n1 [GEMCITABINE] | >200 | >200
O=C(OC[C@]1(O)C=C[C@H](O)[C@@H](OC(=O)c2ccccc2)[C@@H]1O)c1ccccc1 [UVARIDACOL E] | 135 | –
CC(=O)O[C@@H]1[C@@H](OC(=O)c2ccccc2)[C@@H](O)C=C[C@]1(O)COC(=O)c1ccccc1 [UVARIDACOL F] | 124 | –
O=C(OC[C@]1(O)C=C[C@@H](O)[C@H](O)[C@H]1OC(=O)c1ccccc1)c1ccccc1 [UVARIDACOL G] | >200 | –
CC(=O)O[C@@H]1[C@@H](O)[C@H](OC(=O)c2ccccc2)C=C[C@@]1(O)COC(=O)c1ccccc1 [UVARIDACOL H] | 156 | –
